The numbers were not newly measured in patent US9889109B2, “Pharmaceutical composition comprising benzyl alcohol for the treatment of migraines” (St. Renatus, LLC, priority 2012, dated 2018), which cites them from elsewhere.

Turning to `CCCCNc1ccc(C(=O)OCCN(C)C)cc1` [tetracaine, 2-(dimethylamino)ethyl 4-(butylamino)benzoate], the pKa entry is reported as “approximately 8.4”. The unionized molecules (pH 7.4) is reported as 1-2%.
